Assay results: patent US7335481B2, “Methods of identifying compounds that affect a fatty acid cell-surface receptor” (priority 2002, dated 2008)
Where two headings read alike, the source gives them in different places.

How the values were obtained:
FFAR (R10; GPR40) [1] = target: T1, FFAR (R10; GPR40) (Homo sapiens, UniProt O14842); assay: HFF11 reporter cell assay, HFF11.pR10 cells expressing FFAR; assay type: cell-based; design: response of the R10 reporter cell line in the initial screening: dose or concentration left out as unconfirmed; settings: for activation of FFAR: result in words; for response of the R10 reporter cell line in the initial screening: FIG. 1a/1b
T1 construct: expressed in transfected cells; host or cells: HFF11 reporter cells (HeLa-based), line HFF11.pR10
T1 sequence (O14842 whole entry): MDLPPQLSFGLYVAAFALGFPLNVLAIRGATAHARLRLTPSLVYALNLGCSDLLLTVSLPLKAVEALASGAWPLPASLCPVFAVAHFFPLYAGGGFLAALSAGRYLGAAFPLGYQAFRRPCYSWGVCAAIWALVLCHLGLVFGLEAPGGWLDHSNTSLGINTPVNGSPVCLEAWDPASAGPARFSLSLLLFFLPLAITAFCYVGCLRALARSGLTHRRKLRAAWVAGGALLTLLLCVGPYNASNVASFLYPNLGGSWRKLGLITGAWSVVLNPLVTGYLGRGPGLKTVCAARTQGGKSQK
Experimental: Construction of the HFF11 reporter cell lines (successor of the previously described HeLa based cell line, HF1) expressing the orphan GPCRs studied was performed as earlier reported. (Co-pending U.S. application Ser. No. 09/946,334 filed Sep. 21, 2001; Kotarsky et al. 2001.) They contain the reporter plasmid, pcFUS3, where the original promoter region has been extended by 6 NFkB and 6 STAT elements. (Co-pending U.S. application Ser. No. 09/946,334 filed Sep. 21, 2001; Kotarsky et al., unpublished.) On day 1, HFF11 reporter cells, with or without the test […] receptor, were seeded into 96-well plates at 20,000 cells per well in 100 μl growth medium. On day 3, the medium was removed and replaced by 90 μl serum-free medium. Substances (e.g., compounds) and controls were added in the appropriate concentrations 24 h later. Stimulations were performed at 37 degrees C. for 7 h. Cell lysates were assayed in a BMG Lumistar Galaxy luminometer as previously described. (Kotarsky et al., 2001.) Statistical analysis of the drug concentration-response data was carried out with the GraphPad PRISM software package. In the initial screening, reporter cell lines, with or without recombinant test receptors, were challenged with FFAs, such as AA and LA, at […]. Ten cell lines expressing ten “orphan receptors” (one receptor per cell line) were screened. The expressed receptors were labeled R1-R10.

FFAR (R10; GPR40) [2] = target: T1, FFAR (R10; GPR40); assay: Aequorin reporter assay (calcium release) in CHO and HeLa cells transiently transfected with R10; assay type: cell-based; settings: CHO and HeLa cells co-transfected with R10 and aequorin, versus sham-transfected cells, FIG. 2
Experimental: Cells were seeded the day before transfection in a 6-well plate (400,000 cells/well). Then, 0.8 μg of PCDM.AEQ reporter plasmid (Button et al., 1993.) and 1 μg pIRESpuro.R10 receptor plasmid, or pcEGFP for controls, were mixed with 100 μl OptiMEM containing 5 μl per transfection of PLUS reagent. After 15 min., 100 μl OptiMEM and 9 μl (HeLa cells) or 6 μl (CHO cells) of lipofectamine were added and incubated for another 15 min. Then, 800 μl OptiMEM were added, and the cells were washed and incubated with the transfection solution for 5 h. Two days after transfection, cells were loaded with 10 μM coelenterazine and injected into a 96-well plate containing test or control (vehicle) substances. Light emission was recorded for 1 min in a BMG Lumistar Galaxy luminometer and normalized to total emission using […] 100 mM CaCl2 for each well.
Activation of receptor R10 by LA was confirmed by stimulation in two different cell lines, CHO and HeLa, transiently co-transfected with expression vectors containing the R10 ORF (i.e., the gene encoding FFAR) and the calcium-activated photoprotein, aequorin. […] (FIG. 2.)

orphan receptors R1-R9 = assay: HFF11 reporter cell initial screening on the other orphan receptors; assay type: cell-based, human; design: dose or concentration left out as unconfirmed; settings: data not shown
From the text: Taken together, this prompted an investigation of these FFAs using a screening approach aimed at identifying potential surface receptors. We used a highly sensitive reporter system (Kotarsky et al., 2001) expressing each of ten different putative human heptahelix receptors, for which the endogenous activating ligands were still unknown (i.e., “orphan receptors”), was used. The receptor sequences were selected from GenBank, based on a reasonably high sequence homology to the receptors for leukotriene B4 (an AA derivative), previously cloned. (Owman et al., 1996; Tryselius et al., 2000.)
Construction of the HFF11 reporter cell lines (successor of the previously described HeLa based cell line, HF1) expressing the orphan GPCRs studied was performed as earlier reported. (Co-pending U.S. application Ser. No. 09/946,334 filed Sep. 21, 2001; Kotarsky et al. 2001.) They contain the reporter plasmid, pcFUS3, where the original promoter region has been extended by 6 NFkB and 6 STAT elements. (Co-pending U.S. application Ser. No. 09/946,334 filed Sep. 21, 2001; Kotarsky et al., unpublished.) On day 1, HFF11 reporter cells, with or without the test heptahelix receptor, were seeded into 96-well plates at 20,000 cells per well in 100 μl growth medium. On day 3, the medium was removed and replaced by 90 μl serum-free medium. […]

[3] = FFAR response to free fatty acids, HFF11.pR10 reporter cell line, read-out: Mean EC50
[4] = HFF11 reporter cells expressing FFAR

Row | SMILES | EC50 (FFAR (R10; GPR40) [1]; [3]) | activation of FFAR (FFAR (R10; GPR40) [1]; [4]) | further results
1 | CCCCC/C=C\C=C\C(O)CCCCCCCC(=O)O (racemic) [9-HODE, (±)-9-hydroxy, trans-10, cis-12-octadecanoic acid] | 3.4 µM | activated FFAR | 
2 | CC1(COc2ccc(CC3SC(=O)NC3=O)cc2)CCCCC1 (racemic) [Ciglitazone, (±)-5-[4-(1-methylcyclohexylmethoxy)-benzyl]thiazolidine-2,4-dione] |  | strongly activated FFAR | 
3 | CCCCC/C=C\C=C\CCCCCCCCC(=O)O [CLA, trans-10, cis-12-octadecanoic acid] | 77.3 µM | activated FFAR | 
4 | CCCCCCCCCC(=O)O [Capric acid, Decanoic acid] |  |  | EC50 (FFAR (R10; GPR40) [1]; concentration response curves, HFF11 reporter cells expressing FFAR, FIG. 3, read-out: EC50): 12.6 µM
5 | CCOC(=O)C(C)(C)Oc1ccc(Cl)cc1 [Clofibrate] |  | inactive | 
6 | CCCCC/C=C\C/C=C\CCCCCCCCCC(=O)O [EDA, cis-11, cis-14- -eicosadienoic acid] | 20 µM |  | 
7 | CCCCCCCC/C=C/CCCCCCCC(=O)O [Elaidic acid, trans-9-octadecanoic acid] | 120 µM |  | 
8 | COc1ccc(Cl)cc1C(=O)NCCc1ccc(S(=O)(=O)NC(=O)NC2CCCCC2)cc1 [Glibenclamid, Glibenclamide] |  | inactive | 
9 | CCCCCCC(O)CCCCCCCCCCC(=O)O (stereo not drawn) [Hydroxystearic acid, 12-hydroxyoctadecanoic acid] | 8 µM |  | 
10 | CCCCCCCCCCCC(=O)O [Lauric acid, Dodecanoic acid] | 22.5 µM |  | 
11 | CCCCC/C=C\C/C=C\CCCCCCCC(=O)O [Linoleic acid, cis-9, cis-12,-octadecanoic acid] | 38.4 µM |  | calcium-mediated luminescence upon stimulation (FFAR (R10; GPR40) [2]): calcium-mediated luminescence flash; response of the R10 reporter cell line in the initial screening (FFAR (R10; GPR40) [1]): strong and reproducible response
12 | CC(C)(CCCCCCCCCCC(C)(C)CC(=O)O)CC(=O)O [MEDICA 16, 3,3,14,14-tetramethyl-hexadecanedioic acid] |  | strongly activated FFAR | 
13 | CCCC/C=C/CCCCCCCC(=O)O [Myristelaidic acid, trans-9-tetradecenoic acid] | 25 µM |  | 
14 | CCCCCCCC/C=C\CCCCCCCC(=O)O [Oleic acid, cis-9-octadecanoic acid] | 123 µM |  | 
15 | CCCCCCCCCCCCCCCC(=O)O [Palmitic acid, Hexadecanoic acid] | 143 µM |  | 
16 | CCCCCC/C=C\CCCCCCCC(=O)O [Palmitoleic acid, hexadecenoic acid] | 100 µM |  | 
17 | CCCCCCC(O)C/C=C/CCCCCCCC(=O)O (stereo not drawn) [Ricinelaidic acid, 12-hydroxy, trans 9-octadecanoic acid] | 20 µM |  | 
18 | CCCCCCC(O)C/C=C\CCCCCCCC(=O)O (stereo not drawn) [Ricinoleic acid, 12-hydroxy, cis 9-octadecenoic acid] | 8 µM |  | 
19 | CCC=CCC=CCC=CCC=CCCCCC(=O)O [Stearidonic acid, cis-6, cis-9, cis-12-15-octadecanoic acid] | 8.9 µM |  | 
20 | CCCCC/C=C\C/C=C\C/C=C\C/C=C\CCCC(=O)O [arachidonic acid] |  |  | response of the R10 reporter cell line in the initial screening (FFAR (R10; GPR40) [1]): no effect; effect on test receptors R1-R9 in the initial screening (orphan receptors R1-R9): no effect
21 | CCCCCCCCCCCCCCCCCC(=O)O [stearic acid] |  | able to activate the receptor | 
22 | CCCCC/C=C\C/C=C\C/C=C\CCCCC(=O)O [γ-Linoleic acid, cis-6, cis-9, cis-12-octadecanoic acid] | 28.5 µM |  | 
